What was measured:
Format in all cases: cell-based, human
ALS patient iMNs = test: iMN survival assay in ALS patient motor neurons (line type not specified); conditions: hR vs DMSO
Protocol: (§1) Daily imaging was performed to collect data at multiple time points over ˜2 weeks, and then analysis of the data enabled single cell longitudinal tracking during the progressive stages of cell death. The hazard ratio (hR) derived from the Cox model is used to indicate the survival rate of neurons, where a ratio greater than 1 indicates a negative association with survival. A P value is also calculated, which functions as a statistical test of the two hazard functions using the Wald test. In addition, a standard deviation, which replicates the hR value, and survival curves are calculated and graphed. […]
(§2) Induced neuron survival assay: Hb9::RFP^+iMNs appeared between days 13-16 after retroviral transduction. […] Neurons were scored as dead when their soma was no longer detectable by RFP fluorescence. All neuron survival assays were performed at least twice, with equal numbers of neurons from three individual replicates from one of the trials being used for the quantification shown. All trials quantified were representative of other trials of the same experiment. […]

C9-ALS iMN lines = test: iMN survival assay (longitudinal tracking, hazard ratio vs DMSO) in C9-ALS lines; conditions: 3 μM, 2 weeks, media change every 3 days, three C9-ALS iMN lines
Protocol: as §1, §2

sporadic ALS (sALS) iMNs = test: iMN survival assay in sporadic ALS lines; conditions: screen hits
Protocol: as §1, §2

[1] = tested on: healthy control iMN lines; test: iMN survival assay in healthy control lines; conditions: 1 μM, 3 weeks, five healthy control lines
Protocol: as §1, §2

Row | Compound | performance in patient motor neurons (hR) of drugs tested in ALS clinical trials (ALS patient iMNs) | iMN survival, hazard ratio of treatment vs DMSO (C9-ALS iMN lines) | potency among hit compounds efficacious against sporadic ALS patient iMNs (sporadic ALS (sALS) iMNs) | iMN survival, treatment vs DMSO group [1]
1 | CC1=NN(c2ccccc2)C(=O)C1 [edaravone] | do best | – | – | –
2 | Cc1cccc(/C=N/Nc2cc(N3CCOCC3)nc(OCCc3ccccn3)n2)c1 [Apilimod] | – | significant beneficial effect | among the most potent | No significance difference
3 | Nc1nc2ccc(OC(F)(F)F)cc2s1 [riluzole] | do best | – | – | –

Reference: patent US20250377351A1, “METHOD FOR IDENTIFYING EFFECTIVE TREATMENTS AGAINST NEURODEGENERATIVE DISORDERS” (AcuraStem Incorporated, priority 2018, published 2025)
